Data on one molecule can be found in patent US9446019B2, “Sparstolonin B based pharmaceutical agent for neuroblastoma treatment” (University of South Carolina, priority 2013, dated 2016).

Experiment [1] deals with reactive oxygen species in neuroblastoma cells. Put plainly: ROS generation, H2DCFDA fluorometry assay. Type of experiment: cell-based, human. Here is the method:
The production of reactive oxygen species (ROS) in SsnB-treated neuroblastoma cells was detected by a cell-permeable fluorescence probe H2DCFDA (carboxy-2′,7′-dichlorodihydrofluorescein diacetate) according to the manufacturer's instructions (Invitrogen, Carlsbad, Calif.). Briefly, neuroblastoma cells were cultured in DMEM with 10% FBS in Lab-TekII chamber slides (Fisher Scientific, Pittsburg, Pa.) and treated with SsnB for 2 days (SH-SY5Y and IMR-32 cells), 3 days (NGP cell) or 4 days (SKNF-1 and SK-N-BE(2) cells). After treatments, cells were washed with Hank's buffered salt solution (HBSS; Thermo Scientific, Waltham, Mass.) and incubated with 25 μM of carboxy-H2DCFDA dye for 30 min at 37° C. in dark. Nuclei were counterstained with DAPI. Cells were washed three times with HBSS, mounted with Vectashield mounting medium (Vector Laboratories), and immediately examined under Nikon-E600 fluorescence microscopy equipped with fluorescein isothiocyanate (FITC) filter. Oxidation of H2DCFDA probe occurs almost exclusively in the cytosol, and generates a fluorescence that is proportional to ROS generation in that cell. As a negative control, cells without H2DCFDA dye were used to detect autofluorescence. The fluorometric analysis to detect generation of ROS was performed. Briefly, after treatments with SsnB as mentioned above, cells were labeled with carboxy-H2DCFDA dye (25 μM) for 30 min at 37° C. Cells were trypsinized, washed, and re-suspended in PBS and fluorescence intensity was monitored at excitation wavelength 485 nm and emission wavelength 530 nm with a spectramax spectrophotometer (Molecular Devices, Sunnyvale, Calif.).
SsnB-induced generation of ROS was also evaluated by fluorometry assay. Neuroblastoma cells as treated above were incubated with H2DCFDA dye for 30 min and the fluorescence intensity was measured at 485 nm (excitation wavelength) and 530 nm (emission wavelength).

In a further experiment the test system is p53 in SH-SY5Y cells. Put plainly: p53 expression by Western blotting. Type of experiment: cell-based, human. The following applies: SsnB 10 μM. How it is done: After treatment with SsnB, cells were collected, washed with 1×PBS, and lysed with 1× cell lysis buffer (Cell Signaling Technology, Danvers, Mass.) containing phenylmethylsulfonyl fluoride (PMSF) and protease inhibitors (aprotinin and leupeptin) for 30 min on ice, and centrifuged at 12000×rpm for 10 min at 4° C. Supernatant (total cell protein) was collected and stored at −80° C. Protein concentration was determined by bicinchoninic acid method using BCA protein assay kit (Pierce/ThermoScientific, Waltham, Mass.). Equal amount of proteins were diluted with 5× Laemmli samples loading buffer and boiled for five minutes. The proteins were subjected to sodium dodecyl sulfate (SDS)-polyacrylamide gel electrophoresis and analyzed by Western blots. Briefly, after electrophoresis, proteins were transferred on polyvinylidene difluoride (PVDF) membrane at 100 volt for 3 h in cold room. […] Signals were detected by chemiluminiscence detection kit (Pierce/Thermo Fisher Scientific, Rockford, Ill.). […]
At cellular level, mitochondria- or receptor (Fas/FasL)-mediated pathways activate caspase signaling cascade which in turn induces DNA damage and initiates programmed cell death (apoptosis). […] The number of cleaved caspase-3 positive cells were quantitated by ImageJ programme and plotted. […]

For `O=c1occ2c3c(ccc(O)c13)Oc1ccc(O)cc1-2` [SsnB, 8,5′-dihydroxy-4-phenyl-5,2′-oxidoisocoumarin], the “H2DCFDA fluorescence intensity vs DMSO” value in experiment [1] (SsnB 1 μM, nonsignificant) is given as “almost similar”; in experiment [1] (SsnB 10 μM, p<0.05), “significantly increased”. For the same molecule, the “p53 expression vs DMSO” value with p53 in SH-SY5Y cells is reported as “Increased expression of p53”.
